# Several values for one entry are separate records, joined by “and”; a condition that tells them apart may be missing. Equal values may be shown once.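 Five compound concentrations were applied to cells in 96-well plates for 48 hours; endpoints were derived by simple linear interpolation of the resulting dose-response curve. The concentration for 50% growth inhibition is given as GI50. TGI denotes the concentration required for complete inhibition of growth.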
# How the values were obtained:
# Test in all cases: inhibition of tumour cell growth, NCI panel, 48 h
# [1] = system: MOLT-4 leukemia
# [2] = system: A498 renal
# [3] = system: IGROV1 ovarian
# [4] = system: SF-295 CNS
# [5] = system: SR leukemia
# [6] = system: UACC-62 melanoma
# [7] = system: KM12 colon
# [8] = system: SK-OV-3 ovarian
# [9] = system: NCI-H522 lung
# [10] = system: PC-3 prostate
Compound,TGI [1] [µM],TGI [2] [µM],TGI [3] [µM],TGI [4] [µM],TGI [5] [µM],TGI [6] [µM],TGI [7] [µM],TGI [8] [µM],TGI [9] [µM],GI50 [1],GI50 [8] [µM],GI50 [2] [µM],GI50 [3] [µM],GI50 [4] [µM],GI50 [9] [µM],GI50 [6] [µM],GI50 [7] [µM],GI50 [5] [µM],GI50 [10] [µM],TGI [10] [µM]
COC(=O)c1nc(C(=O)OC)c2c([nH]c3ccccc32)c1C(=O)OC,> 100,> 100,> 100,> 100,> 100,> 100,> 100,,,,,,,,,,,,,
Fc1ccc(C2SCc3nc4ccccc4n32)cc1F (stereo unspecified),56,> 100,> 100,> 100,,> 100,> 100,> 100,61.7,,,,,,,,,,,
N#Cc1ccc(C(C2C(=O)NC(=O)NC2=O)C2C(=O)NC(=O)NC2=O)cc1,> 100,,> 100,> 100,> 100,> 100,> 100,> 100,> 100,,,,,,,,,,,
CCCCN(CCCC)CC(C(=O)Nc1ccc([N+](=O)[O-])cc1[N+](=O)[O-])/C(C)=N\NC(=O)C[N+](C)(C)C (stereo unspecified),> 100,> 100,> 100,> 100,49.7,> 100,> 100,> 100,> 100,,,,,,,,,,,
CCc1cccc(CC)c1NC(=O)CC1SC(N)=NC1=O (stereo unspecified),> 100,> 100,> 100,> 100,> 100,> 100,> 100,> 100,> 100,,,,,,,,,,,
C=C1c2[nH]c3ccccc3c2CC(C(=O)O)N1C(O)c1ccc(S(=O)(=O)O)cc1 (stereo unspecified),> 100,> 100,,> 100,> 100,> 100,> 100,> 100,> 100,,,,,,,,,,,
O=C1C(=C([O-])c2ccccc2)C(=O)c2ccccc21.O=C1C(=C([O-])c2ccccc2)C(=O)c2ccccc21.[Co+2],> 100,> 100,> 100,> 100,,> 100,> 100,> 100,> 100,> 100 µM,> 100,> 100,> 100,59.6,80.6,57.1,> 100,,,
CC(=O)Oc1c(Br)ccc2cc(C(Br)Br)c(C(=O)c3ccccc3)nc12,46.2,,76.5,35.1,74.2,39.4,37.1,,14.8,,,,,,,,,,,
O=C1NC(=O)C2C1C1C=C3c4ccccc4N(c4ccccc4)C32[C@H]2C(=O)NC(=O)[C@@H]12 (stereo partly specified),> 100,> 100,> 100,> 100,,> 100,> 100,> 100,> 100,,,,,,,,,,,
CC(=O)OCC1OC([Se-])C(OC(C)=O)C(OC(C)=O)C1OC(C)=O.N#CCC[PH+](CCC#N)CCC#N.[Au+] (stereo unspecified),14.1,,> 81.6,35.9,13.7,30.6,> 74.5,> 94.6,40.8,2.75 µM,37.1,,24.5,13.7,5.75,5.12,10.3,3.06,,
N#Cc1c2ccccc2c2nnc3ccc(C(F)(F)F)cc3n12,> 100,,> 100,> 100,> 100,> 100,> 100,> 100,68.1,10.4 µM,89.9,,47.9,42.7,17,66.8,61.2,0.214,61.1,> 100
O=C([O-])CCc1ccccc1.O=C([O-])CCc1ccccc1.O=C([O-])CCc1ccccc1.O=C([O-])CCc1ccccc1.[Mo+2].[Mo+2],> 100,,> 100,> 100,> 100,> 100,> 100,> 100,,> 100 µM,> 100,,> 100,> 100,,> 100,> 100,> 100,,
O=C(O)c1ccc(C(=O)O)c(C(=O)O)c1.[NH-]C1CCCCC1[NH-].[Pt+2],20,45.1,44.6,68.6,,36,74.6,> 97.3,24.7,0.5 µM and 4.84 µM,40.9,6.28,4.57,5.52,,2.82,14.3,,4.94,59.5
NC(=S)N/N=C(\CCC(=O)Nc1ccccc1[N+](=O)[O-])CC(=O)c1ccco1,> 100,> 100,> 100,> 100,> 100,> 100,> 100,> 100,> 100,,,,,,,,,,,
NC(=O)CCc1ccccc1Oc1nccc(-c2c(-c3ccc(F)cc3)ncn2C2CCNCC2)n1,> 25,> 25,> 25,> 25,,> 25,> 25,> 25,> 25,> 25 µM,> 25,> 25,> 25,> 25,> 25,> 25,> 25,,> 25,> 25
O=c1c(O)cc2c(O)oc3c(=O)c(O)c(O)c4c(O)oc1c2c43,72.2,> 100,> 100,50.4,> 100,> 100,> 100,> 100,> 100,,,,,,,,,,,
O=c1nc(N2CCCC2)nc(N2CCCC2)s1,> 100,> 100,> 100,> 100,> 100,> 100,> 100,> 100,> 100,,,,,,,,,,,
N#Cc1c(-c2ccccc2)cc(-c2cccs2)c(C#N)c1N,> 100,> 100,,> 100,,,> 100,,> 100,,,,,,,,,,,
CC(=O)N(CCN1C(=O)c2ccccc2C1=O)CCN1C(=O)c2ccccc2C1=O,> 100,> 100,,> 100,> 100,> 100,> 100,> 100,> 100,,,,,,,,,,,
CCC1c2cc3n(c(=O)c2COC1O)Cc1c-3nc2ccccc2c1Cl (stereo unspecified),> 73,> 100,> 100,> 100,,> 100,> 100,> 100,> 100,,,,,,,,,,,

# From PubChem BioAssay (NCI)
